In publication PMC8002023, “3D Pharmacophore-Based Discovery of Novel KV10.1 Inhibitors with Antiproliferative Activity” (Cancers, 2021):

How the values were obtained:
[1] = test system: Salmonella typhimurium strain TA100; test: Salmonella/microsomal reverse mutation (Ames) assay, TA100; set-up: key to bacterial background lawn: slightly reduced bacterial background; moderately reduced bacterial background; extremely reduced bacterial background; bacterial background is absent; details: for mutagenic response: TA100, 0.0158–0.158 mg/plate, −S9 and +S9; for cytotoxic concentration to bacterial strain: TA100, −/+ S9 metabolic activation; for induction factor (IF): IF ≥ 2 positive
Experimental: (§1) Mutagenicity of compounds ZVS-08 and 8 was tested with the Salmonella/microsomal reverse mutation (Ames) assay on Salmonella typhimurium strains TA98 and TA100 without and with external metabolic activation according to the OECD guidelines (OECD TG 471) with minor modifications. Briefly, 100 µL of ZVS-08 and 8 (0.158, 0.5, 1.58, 5, 15.8, and 50 mg/mL corresponding to the final concentration of 0.0158, 0.05, 0.158, 0.5, 1.58, and 5 mg/plate, respectively), […] bacterial culture of S. typhimurium (overnight culture at 37 °C), and […] of phosphate buffer (for assays without metabolic activation) or 10% S9 mix (for assays with metabolic activation) were added to 2 mL of molten top agar (supplemented with histidine/biotin, final concentration 0.05 mM), gently mixed and poured onto minimal agar plates. The number of His+ revertants was counted after 48 h (TA100) and 72 h (TA98) of incubation at 37 °C. Three plates were used per treatment point. The mutagenic potential of the compounds was expressed as an induction factor (IF), where IF = (number of revertants in the presence of the compound)/(number of revertants in solvent control). Additionally, each plate was checked for possible toxic effects of tested compounds. […] 4-nitroquinoline- N-oxide (4-NQNO; 0.25 μg/plate) for TA98 and sodium azide (NaN3; 0.25 μg/plate) for TA100 were used as positive controls without S9 metabolic activation, while benzo[a]pyrene (B[a]P; 2.5 μg/plate) was used as positive controls for both bacterial strains with S9 metabolic activation.

[2] = test system: Salmonella typhimurium strain TA98; test: Salmonella/microsomal reverse mutation (Ames) assay, TA98; set-up: key to bacterial background lawn: slightly reduced bacterial background; moderately reduced bacterial background; extremely reduced bacterial background; bacterial background is absent; details: for mutagenic response: TA98, 0.0158–0.158 mg/plate, −S9 and +S9; for cytotoxic concentration to bacterial strain: TA98, −/+ S9 metabolic activation; for induction factor (IF): IF ≥ 2 positive
Experimental: as §1

[3] = biological target: T1, hERG (Homo sapiens, UniProt Q12809); test: Whole-cell patch clamp on stably transfected HEK-293 cells, hERG tail current; format: cell-based; details: peak tail current at −40 mV after +20 mV
T1 construct: expressed in transfected cells
Experimental: Whole-cell patch clamp experiments were performed on stably transfected HEK-293 cells. The cells were grown on fibronectin-coated glass coverslips in DMEM supplemented with 10% FCS and 300 µg/mL Zeocin. Experiments were performed at room temperature under continuous perfusion. The extracellular solution contained (mM) 160 NaCl, 2.5 KCl, 2 CaCl2, 1 MgCl2, 10 Hepes/NaOH, pH 7.4, 8 glucose. For the experiments determining conductance–voltage relationships, tail currents were made visible by substituting 60 mM NaCl by KCl ([…], 100 NaCl). Pipettes were pulled from #1 glass capillaries (WPI) to resistances of 1–3 MΩ when loaded with the intracellular solution (100 KCl, 45 N-methyl-D-glucamine, 10 1,2-bis(o-aminophenoxy)ethane-N,N,N′,N′-tetraacetic acid (BAPTA), 10 Hepes pH 7.35). Data acquisition was performed using a EPC10 Plus amplifier (HEKA Elektronik) and Patch Master software. Drug application was performed using an 8-channel fast solution exchanger (ALA). All compounds were dissolved in DMSO to a final concentration of 10 mM. 0.5% DMSO in extracellular solution served as control. KV10.1 currents were elicited by 500 ms depolarisations to +40 mV under continuous perfusion with the compound-containing or control solution. hERG current amplitudes were measured as the peak tail current during a 4 s repolarization to −40 mV after a depolarising pulse to +20 mV lasting for 2 s.

[4] = test system: Colo357 tumour spheroids; test: Apoptosis (caspase 3/7 reporter) in tumour spheroids; format: cell-based; details: 50 µM, caspase reporter fluorescence over 72 h, 8.9 µM cycloheximide as sensitizer
Experimental: Spheroids were cultured in round bottom ultra-low attachment 96-well plates (Corning) at a density of 5000 cells/well in 2% Matrigel (Corning) and centrifuged at 1000× g for 10 min. Spheroid formation was monitored continuously in the Incucyte system and treatments were added once spheroids were formed. As apoptosis sensitizer, 8.9 µM cycloheximide was added to controls and treated spheroids. Caspase 3/7 green reagent (Sartorius; 1:1000) was used as recommended by the manufacturer. Caspase 3/7 reagent substrate crosses the cell membrane and its cleavage by activated caspase-3/7 results in the release of a DNA dye and fluorescent staining of nuclear DNA.
To test the ability of the compounds to inhibit tumour progression in a more predictive system, we performed experiments on tumour spheroids of the pancreatic cancer cell line Colo357, which grows efficiently in this culture modality. The cells were seeded in the presence of Matrigel (see methods), allowed to form spheroids, and the compounds (50 µM) were added to the growth medium. The control contained the same amount of the vehicle (0.5% DMSO). Apoptosis was monitored by addition of a fluorescent […] activity reporter at the same time as the compounds. Cleavage of the reporter by caspase results in green florescence, and the intensity of the fluorescence was recorded over 72 h.

T1 sequence (Q12809 whole entry): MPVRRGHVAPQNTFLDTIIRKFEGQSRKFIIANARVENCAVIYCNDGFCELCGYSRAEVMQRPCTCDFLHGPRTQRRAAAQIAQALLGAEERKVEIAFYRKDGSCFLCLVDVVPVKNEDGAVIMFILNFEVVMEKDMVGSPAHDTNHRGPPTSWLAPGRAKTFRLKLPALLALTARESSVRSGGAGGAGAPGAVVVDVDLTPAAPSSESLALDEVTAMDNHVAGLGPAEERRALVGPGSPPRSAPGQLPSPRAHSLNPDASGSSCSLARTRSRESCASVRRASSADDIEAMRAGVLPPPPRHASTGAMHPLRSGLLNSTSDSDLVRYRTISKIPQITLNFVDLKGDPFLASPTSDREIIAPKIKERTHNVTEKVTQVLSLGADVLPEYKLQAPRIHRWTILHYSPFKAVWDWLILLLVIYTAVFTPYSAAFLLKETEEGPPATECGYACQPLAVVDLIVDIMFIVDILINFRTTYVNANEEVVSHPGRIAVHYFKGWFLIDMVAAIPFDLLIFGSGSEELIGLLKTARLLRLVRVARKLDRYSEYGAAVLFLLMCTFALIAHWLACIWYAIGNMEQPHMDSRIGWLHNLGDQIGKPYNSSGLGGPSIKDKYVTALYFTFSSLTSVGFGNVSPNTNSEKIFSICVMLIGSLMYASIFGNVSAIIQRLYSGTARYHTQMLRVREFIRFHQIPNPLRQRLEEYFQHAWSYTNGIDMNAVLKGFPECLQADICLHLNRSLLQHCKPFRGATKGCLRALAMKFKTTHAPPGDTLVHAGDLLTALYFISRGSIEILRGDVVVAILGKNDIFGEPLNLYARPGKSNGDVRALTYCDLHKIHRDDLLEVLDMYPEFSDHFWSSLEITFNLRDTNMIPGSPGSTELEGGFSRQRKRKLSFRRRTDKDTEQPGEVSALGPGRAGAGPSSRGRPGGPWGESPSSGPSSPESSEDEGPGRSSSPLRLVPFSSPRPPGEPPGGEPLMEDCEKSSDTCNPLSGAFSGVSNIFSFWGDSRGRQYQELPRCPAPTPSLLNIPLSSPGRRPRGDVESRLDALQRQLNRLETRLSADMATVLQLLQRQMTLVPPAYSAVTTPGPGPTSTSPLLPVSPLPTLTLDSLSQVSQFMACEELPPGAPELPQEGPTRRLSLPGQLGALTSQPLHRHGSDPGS

## O=[N+]([O-])c1cc(C(F)(F)F)ccc1Nc1ccc(OCC(O)CN2CCOCC2)cc1 (stereo not shown) [Compound 8]
[1]
  mutagenic response: no mutagenic response
  cytotoxic concentration to bacterial strain: ≥ 0.5 mg/plate
[2]
  mutagenic response: no mutagenic response
  cytotoxic concentration to bacterial strain: ≥ 0.5 mg/plate
[3]
  IC50: 156 nM
[4]
  apoptosis induction in tumour spheroids: apoptosis statistically significant over the control starting only after 24 h

## CN(C)CC(O)COc1ccc(Nc2ccc(C(F)(F)F)cc2[N+](=O)[O-])cc1 (stereo not shown) [ZVS-08]
[1]
  mutagenic response: no mutagenic response
  cytotoxic concentration to bacterial strain: ≥ 0.5 mg/plate
[1]; TA100, +S9, 0.0158 mg/plate
  Average number of revertant colonies (mean ± SD): 102.67 ± 15.01
  induction factor (IF): 1.02
[1]; TA100, +S9, 0.05 mg/plate
  Average number of revertant colonies (mean ± SD): 81.67 ± 14.57
  induction factor (IF): 0.81
[1]; TA100, +S9, 0.158 mg/plate
  Average number of revertant colonies (mean ± SD): 71.00 ± 7.21
  bacterial background lawn: a
  induction factor (IF): 0.71
[1]; TA100, +S9, 0.5 mg/plate
  Average number of revertant colonies (mean ± SD): 0
  bacterial background lawn: b
[1]; TA100, +S9, 1.58 mg/plate
  Average number of revertant colonies (mean ± SD): 0
  bacterial background lawn: d
[1]; TA100, +S9, 5 mg/plate
  Average number of revertant colonies (mean ± SD): 0
  bacterial background lawn: d
[1]; TA100, -S9, 0.0158 mg/plate
  Average number of revertant colonies (mean ± SD): 114.00 ±2.00
  induction factor (IF): 1.29
[1]; TA100, -S9, 0.05 mg/plate
  Average number of revertant colonies (mean ± SD): 99.67 ± 16.80
  induction factor (IF): 1.12
[1]; TA100, -S9, 0.158 mg/plate
  Average number of revertant colonies (mean ± SD): 81.00 ± 5.29
  bacterial background lawn: a
  induction factor (IF): 0.91
[1]; TA100, -S9, 0.5 mg/plate
  Average number of revertant colonies (mean ± SD): 0
  bacterial background lawn: c
[1]; TA100, -S9, 1.58 mg/plate
  Average number of revertant colonies (mean ± SD): 0
  bacterial background lawn: d
[1]; TA100, -S9, 5 mg/plate
  Average number of revertant colonies (mean ± SD): 0
  bacterial background lawn: d
[2]
  mutagenic response: no mutagenic response
  cytotoxic concentration to bacterial strain: ≥ 0.5 mg/plate
[2]; TA98, +S9, 0.0158 mg/plate
  Average number of revertant colonies (mean ± SD): 31.00 ± 3.61
  induction factor (IF): 0.85
[2]; TA98, +S9, 0.05 mg/plate
  Average number of revertant colonies (mean ± SD): 45.33 ± 8.62
  induction factor (IF): 1.25
[2]; TA98, +S9, 0.158 mg/plate
  Average number of revertant colonies (mean ± SD): 34.67 ± 14.05
  bacterial background lawn: a
  induction factor (IF): 0.95
[2]; TA98, +S9, 0.5 mg/plate
  Average number of revertant colonies (mean ± SD): 0
  bacterial background lawn: b
[2]; TA98, +S9, 1.58 mg/plate
  Average number of revertant colonies (mean ± SD): 0
  bacterial background lawn: d
[2]; TA98, +S9, 5 mg/plate
  Average number of revertant colonies (mean ± SD): 0
  bacterial background lawn: d
[2]; TA98, -S9, 0.0158 mg/plate
  Average number of revertant colonies (mean ± SD): 21.67 ± 4.51
  induction factor (IF): 0.86
[2]; TA98, -S9, 0.05 mg/plate
  Average number of revertant colonies (mean ± SD): 22.67 ± 8.08
  induction factor (IF): 0.89
[2]; TA98, -S9, 0.158 mg/plate
  Average number of revertant colonies (mean ± SD): 17.67 ± 3.79
  bacterial background lawn: a
  induction factor (IF): 0.70
[2]; TA98, -S9, 0.5 mg/plate
  Average number of revertant colonies (mean ± SD): 0
  bacterial background lawn: c
[2]; TA98, -S9, 1.58 mg/plate
  Average number of revertant colonies (mean ± SD): 0
  bacterial background lawn: d
[2]; TA98, -S9, 5 mg/plate
  Average number of revertant colonies (mean ± SD): 0
  bacterial background lawn: d
[3]
  IC50: 194 nM
[4]
  apoptosis induction in tumour spheroids: induced apoptosis efficiently starting very early
